Measured values from the NIST ThermoML archive (doi:10.1016/j.jct.2008.06.017).

Experiments:
[1] = Liquid, Vibrating tube method
[2] = xn = mol fraction of the nth substance listed; details: Liquid, Vibrating tube method

C=CCOC(=O)C(=C)C [2-propenyl 2-methylpropenoate]
[1]
Details | mass density [kg/m3]
293.15 K | 932.965
303.15 K | 922.525
313.15 K | 912.072

C=CCOC(=O)C(=C)C [2-propenyl 2-methylpropenoate] + COC(=O)OC
[2]
Details | mass density [kg/m3]
293.15 K, x2 = 0 | 932.965
293.15 K, x2 = 0.0254 | 935.07
293.15 K, x2 = 0.0498 | 937.164
293.15 K, x2 = 0.1006 | 941.619
293.15 K, x2 = 0.1507 | 946.22
293.15 K, x2 = 0.2 | 950.913
293.15 K, x2 = 0.2505 | 955.966
293.15 K, x2 = 0.2999 | 961.134
293.15 K, x2 = 0.3499 | 966.623
293.15 K, x2 = 0.4005 | 972.4
293.15 K, x2 = 0.449 | 978.208
293.15 K, x2 = 0.5 | 984.616
293.15 K, x2 = 0.5499 | 991.215
293.15 K, x2 = 0.5991 | 998.042
293.15 K, x2 = 0.6502 | 1005.49
293.15 K, x2 = 0.7 | 1013.17
293.15 K, x2 = 0.7502 | 1021.34
293.15 K, x2 = 0.8001 | 1029.9
293.15 K, x2 = 0.8499 | 1039
293.15 K, x2 = 0.9002 | 1048.71
293.15 K, x2 = 0.9499 | 1058.87
293.15 K, x2 = 0.975 | 1064.27
303.15 K, x2 = 0 | 922.525
303.15 K, x2 = 0.0253 | 924.591
303.15 K, x2 = 0.0501 | 926.656
303.15 K, x2 = 0.101 | 931.041
303.15 K, x2 = 0.15 | 935.458
303.15 K, x2 = 0.1999 | 940.145
303.15 K, x2 = 0.2505 | 945.101
303.15 K, x2 = 0.2999 | 950.165
303.15 K, x2 = 0.3499 | 955.527
303.15 K, x2 = 0.4003 | 961.195
303.15 K, x2 = 0.447 | 966.662
303.15 K, x2 = 0.5001 | 973.205
303.15 K, x2 = 0.5501 | 979.68
303.15 K, x2 = 0.5994 | 986.387
303.15 K, x2 = 0.6502 | 993.661
303.15 K, x2 = 0.7001 | 1001.19
303.15 K, x2 = 0.7503 | 1009.19
303.15 K, x2 = 0.8001 | 1017.58
303.15 K, x2 = 0.8499 | 1026.47
303.15 K, x2 = 0.9002 | 1035.99
303.15 K, x2 = 0.9499 | 1046
303.15 K, x2 = 0.975 | 1051.3
313.15 K, x2 = 0 | 912.072
313.15 K, x2 = 0.0247 | 914.028
313.15 K, x2 = 0.0499 | 916.075
313.15 K, x2 = 0.1002 | 920.29
313.15 K, x2 = 0.1496 | 924.626
313.15 K, x2 = 0.1997 | 929.2
313.15 K, x2 = 0.2495 | 933.94
313.15 K, x2 = 0.2999 | 938.979
313.15 K, x2 = 0.3502 | 944.239
313.15 K, x2 = 0.3999 | 949.688
313.15 K, x2 = 0.4499 | 955.431
313.15 K, x2 = 0.4997 | 961.436
313.15 K, x2 = 0.5503 | 967.862
313.15 K, x2 = 0.6001 | 974.504
313.15 K, x2 = 0.6497 | 981.462
313.15 K, x2 = 0.7001 | 988.916
313.15 K, x2 = 0.7498 | 996.664
313.15 K, x2 = 0.7998 | 1004.93
313.15 K, x2 = 0.85 | 1013.71
313.15 K, x2 = 0.8998 | 1023
313.15 K, x2 = 0.9498 | 1032.83
313.15 K, x2 = 0.9746 | 1037.94

C=C(C)C(=O)OCCCC [butyl 2-methyl-2-propenoate]
[1]
Details | mass density [kg/m3]
293.15 K | 895.231
303.15 K | 885.991
313.15 K | 876.19

C=C(C)C(=O)OCCCC [butyl 2-methyl-2-propenoate] + COC(=O)OC
[2]
Details | mass density [kg/m3]
293.15 K, x2 = 0 | 895.231
293.15 K, x2 = 0.0253 | 897.401
293.15 K, x2 = 0.0496 | 899.525
293.15 K, x2 = 0.1 | 904.247
293.15 K, x2 = 0.1512 | 909.195
293.15 K, x2 = 0.2002 | 914.234
293.15 K, x2 = 0.2501 | 919.652
293.15 K, x2 = 0.3 | 925.514
293.15 K, x2 = 0.3496 | 931.664
293.15 K, x2 = 0.4002 | 938.381
293.15 K, x2 = 0.45 | 945.36
293.15 K, x2 = 0.4998 | 952.885
293.15 K, x2 = 0.5499 | 960.906
293.15 K, x2 = 0.6 | 969.499
293.15 K, x2 = 0.6499 | 978.774
293.15 K, x2 = 0.7003 | 988.865
293.15 K, x2 = 0.7501 | 999.691
293.15 K, x2 = 0.7998 | 1011.24
293.15 K, x2 = 0.8502 | 1024.04
293.15 K, x2 = 0.8997 | 1037.82
293.15 K, x2 = 0.9499 | 1053.1
293.15 K, x2 = 0.9747 | 1061.18
303.15 K, x2 = 0 | 885.991
303.15 K, x2 = 0.0255 | 888.128
303.15 K, x2 = 0.0511 | 890.378
303.15 K, x2 = 0.0984 | 894.561
303.15 K, x2 = 0.1496 | 899.445
303.15 K, x2 = 0.1998 | 904.542
303.15 K, x2 = 0.251 | 909.93
303.15 K, x2 = 0.3 | 915.538
303.15 K, x2 = 0.3498 | 921.462
303.15 K, x2 = 0.4002 | 927.876
303.15 K, x2 = 0.4505 | 934.768
303.15 K, x2 = 0.5001 | 942.022
303.15 K, x2 = 0.5497 | 949.757
303.15 K, x2 = 0.6003 | 958.326
303.15 K, x2 = 0.6507 | 967.581
303.15 K, x2 = 0.7003 | 977.274
303.15 K, x2 = 0.7503 | 987.854
303.15 K, x2 = 0.8003 | 999.303
303.15 K, x2 = 0.8497 | 1011.72
303.15 K, x2 = 0.8997 | 1025.31
303.15 K, x2 = 0.95 | 1040.3
303.15 K, x2 = 0.9746 | 1048.26
313.15 K, x2 = 0 | 876.19
313.15 K, x2 = 0.0248 | 878.23
313.15 K, x2 = 0.0506 | 880.426
313.15 K, x2 = 0.1009 | 884.856
313.15 K, x2 = 0.1505 | 889.457
313.15 K, x2 = 0.2003 | 894.361
313.15 K, x2 = 0.2512 | 899.681
313.15 K, x2 = 0.3005 | 905.153
313.15 K, x2 = 0.3502 | 910.961
313.15 K, x2 = 0.4009 | 917.353
313.15 K, x2 = 0.4509 | 924.075
313.15 K, x2 = 0.4999 | 931.103
313.15 K, x2 = 0.5506 | 938.855
313.15 K, x2 = 0.6 | 947.003
313.15 K, x2 = 0.6502 | 955.954
313.15 K, x2 = 0.7002 | 965.503
313.15 K, x2 = 0.7503 | 975.976
313.15 K, x2 = 0.7999 | 987.089
313.15 K, x2 = 0.8501 | 999.417
313.15 K, x2 = 0.8998 | 1012.69
313.15 K, x2 = 0.9498 | 1027.3
313.15 K, x2 = 0.9751 | 1035.15

COC(=O)OC [dimethyl carbonate]
[1]
Details | mass density [kg/m3]
293.15 K | 1069.79
303.15 K | 1056.75
313.15 K | 1043.37

COC(=O)OC [dimethyl carbonate] + C=C(C)C(=O)OCCCC
[2], x1 = 1
Details | mass density [kg/m3]
293.15 K | 1069.79
303.15 K | 1056.75
313.15 K | 1043.37
